Experimental data reported in patent US20230140838A9, “NOVEL ACTIVITY-BASED PROBES FOR NEUTROPHIL ELASTASE AND THEIR USE” (Takeda Pharmaceutical Company Limited, priority 2018, published 2023).

Tests used:
[1] = test system: serine proteases in lysates prepared from mouse pancreas; experiment: Ex vivo labeling of mouse pancreas lysates, in-gel fluorescence and immunoprecipitation; assay type: binding
Method: (§1) Tubes were rocked overnight at 4° C.

neutrophil elastase (NE) = biological target: T1, neutrophil elastase (NE) (Homo sapiens, UniProt P08246); experiment: Recombinant protease labeling / fluorescent SDS-PAGE, neutrophil elastase; assay type: binding; details: 0.1-1 μM probe
T1 construct: purchased Elastin Products Company
T1 sequence (P08246 30-267): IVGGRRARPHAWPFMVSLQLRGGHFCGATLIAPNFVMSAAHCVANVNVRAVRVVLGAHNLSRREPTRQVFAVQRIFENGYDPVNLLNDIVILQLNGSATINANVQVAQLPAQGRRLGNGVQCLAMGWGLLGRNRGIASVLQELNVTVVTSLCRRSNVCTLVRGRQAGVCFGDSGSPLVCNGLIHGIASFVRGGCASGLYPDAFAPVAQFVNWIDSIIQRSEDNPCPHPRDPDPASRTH

NE [2] = test system: NE
Method: PK105b or Cy5-V-DPP (0, 0.1, 0.5 or 1 μM) was added from a 100×DMSO stock, and reaction was left to occur at 37° C. for 30 minutes. Proteins were solubilized in 4× sample buffer (40% glycerol, 200 mM Tris-Cl [pH 6.8], 8% SDS, 0.04% bromophenol blue, 5% beta-mercaptoethanol), boiled for five minutes and resolved on a 15% SDS-PAGE gel. Probe labeling was detected by scanning the gel for Cy5 fluorescence on a Typhoon 5 flatbed laser scanner (GE Healthcare).
Bone marrow was obtained by flushing tibias and femurs from healthy C57BL/6J mice with PBS. Cells were washed and resuspended in PBS prior to sonication on ice. […] Total protein (60 μg, as measured by BCA assay, Pierce) was aliquoted in a total volume of 20 μl PBS, and probe labeling and SDS-PAGE was carried out as above.
Fluorescent Gels were Transferred to Nitrocellulose Membranes and Blotted Using the Turbo Blot system (BioRad). […] Binding was detected by scanning with the IRLong filter on a Typhoon 5 flatbed laser scanner (GE Healthcare).
PK105b-labeled lysates (boiled in sample buffer for five minutes) were divided into input and immunoprecipitation (IP) samples (100 μg each). […] Supernatants were then analyzed, alongside the input sample, by fluorescent SDS-PAGE as above. […]

NE [3] = experiment: Ex vivo labeling of human colon mucosal biopsy lysates (ulcerative colitis vs healthy); assay type: binding
Method: as §1
Human mucosal biopsies were obtained from individuals during colonoscopy procedures at Hotel Dieu Hospital in Kingston, Ontario, Canada (Table 1). Patients were well-characterized individuals with active ulcerative colitis (UC) or healthy individuals undergoing routine colonoscopy for cancer screening. For UC patients, biopsies were obtained from sites of active inflammation. Written and verbal consent was obtained prior to enrolment and all protocols were approved by the Queen's University Human Ethics Committee. Fresh biopsies were washed in PBS and then snap frozen for protease analysis as above.

NE [4] = biological target: T2, NE (Mus musculus, UniProt Q3UP87); assay type: binding
T2 sequence (Q3UP87 29-247 limits assumed): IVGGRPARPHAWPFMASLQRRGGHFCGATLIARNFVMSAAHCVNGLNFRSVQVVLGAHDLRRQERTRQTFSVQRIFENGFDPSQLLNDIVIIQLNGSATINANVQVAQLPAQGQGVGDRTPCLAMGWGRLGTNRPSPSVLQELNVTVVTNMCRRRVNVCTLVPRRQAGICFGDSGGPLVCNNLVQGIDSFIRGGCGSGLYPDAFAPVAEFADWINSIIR

NE [5] = biological target: T2, NE; assay type: binding; remark: listed apart in the source

SMILES: CCC(NC(=O)[C@@H]1CC2CCCCC2N1C(=O)[C@H](CCS(C)(=O)=O)NC(=O)[C@H](CCCCOCc1ccccc1)NC(=O)CCCCCN1/C(=C/C=C/C=C/C2=[N+](CC)c3ccc(S(=O)(=O)[O-])cc3C2(C)C)C(C)(C)c2cc(S(=O)(=O)O)ccc21)P(=O)(Oc1ccccc1)Oc1ccccc1 (stereo partly shown) [PK105b]
- labeling of 25-KDa proteins in mouse pancreas lysates (in-gel fluorescence) ([1]; 0.1, 0.5 and 1 µM): strongly labeled
- targets of the probe identified by immunoprecipitation ([1]; labeled mouse pancreas lysates, antibodies to NE, PE, Try3): combination of NE, pancreatic elastase (PE), and trypsin 3
- potency of NE labeling compared between probes (neutrophil elastase (NE)): more potent than Cy5-V-DPP
- labeling in tumor tissues versus normal tongue tissues (NE [2]; HSC-3 xenograft, two weeks): clear labeling of a 25-KDa species in tumor tissues, but not normal tongue tissues
- labeling of other high-molecular weight species in tumor/tongue lysates (NE [2]; unidentified species): abundantly labeled
- identity of labeled bands by immunoprecipitation with NE-specific antibody (NE [3]; UC biopsy lysates): confirmed to be NE
- labeling in active ulcerative colitis biopsies compared with healthy individuals (NE [3]; human colon mucosal biopsies, UC n=9, normal n=5): significant increase in labeling
- number of species labeled in human mucosal lysates (NE [3]; in-gel fluorescence): three species were labeled
- identity of the major 25-KDa species by immunoblotting and immunoprecipitation (NE [4]): confirmed to be NE
- labeling in infected lung tissue lysates compared with control lungs (NE [4]): significantly increased
- ability to detect NE activity in tissue lysates compared between probes (NE [5]): clearly superior to Cy5-V-DPP
- binding to other species (off-target bands) (NE [5]): binding to several species in the 50-75-KDa range
- identity of the labeled band by immunoprecipitation with NE-specific antibody (NE [5]): confirmed to be NE
- labeling of the 25-KDa band in healthy distal colons and proximal regions of healthy and inflamed colons (NE [5]): virtually absent
- labeling of the 25-KDa species in distal colon lysates of TNBS-treated mice (NE [5]): clear labeling of a single protein at 25-KDa
- species of the 25-KDa NE doublet labeled by the probe (NE [5]): Only the lower species
